Assay results taken from patent US20050074879A1, “Antisense oligonucleotide modulation of STAT3 expression” (priority 2000, published 2005).

Legend:
Format in all cases: cell-based
[1] = tested on: Human STAT3 mRNA; experiment: STAT3 mRNA in A549 cells treated with dsRNAs (duplex antisense compounds), real-time PCR PPS 199 (Table 22); conditions: treated 4 hours, harvested 16 hours later, − decrease, + increase vs untreated control
Method: When cells reached 80% confluency, they are treated with duplexed antisense compounds of the invention. For cells grown in 96-well plates, wells are washed once with […] OPTI-MEM-1 reduced-serum medium (Gibco BRL) and then treated with 130 μL of OPTI-MEM-1 containing 12 μg/mL LIPOFECTIN (Gibco BRL) and the desired duplex antisense compound at a final concentration of 200 nM (a ratio of 6 μg/mL LIPOFECTIN per 100 nM duplex antisense compound). After 5 hours of treatment, the medium is replaced with fresh medium. Cells are harvested 16 hours after treatment, at which time RNA is isolated and target reduction measured by RT-PCR.
The compounds in Table 21 were tested for their effects on human STAT3 expression in A549 cells. ISIS 330249 targets the same site as the antisense oligonucleotid ISIS 106734 (SEQ ID NO: 45) and ISIS 330247 targets the same site as the antisense oligonucleotide ISIS 113176 (SEQ ID NO: 115); thus, ISIS 106734 and ISIS 113176 were also tested. A549 cells were treated with oligonucleotide mixed with LIPOFECTIN (Invitrogen Corporation, Carlsbad, Calif.) as described herein. The control oligonucleotide used was ISIS 129698 ([…], SEQ ID NO: 402). Cells were treated with oligonucleotide for 4 hours and harvested an additional 16 hours later. Untreated cells served as a control.
Human STAT3 mRNA expression levels were quantitated by real-time PCR using primer probe set PPS 199 and gene target quantities were normalized using Ribogreen as described in other examples herein. A “−” or “+” designation indicates a decrease or increase of STAT 3 mRNA expression, respectively, relative to untreated control cells. Where present, “N.D.” indicates not determined.

[2] = tested on: Human STAT3 mRNA; experiment: Human STAT3 mRNA dose response in A549 cells, real-time PCR with PPS 199 (Table 20); conditions: 16 hours, LIPOFECTIN, − decrease, + increase relative to untreated control cells
Method: An additional dose-response experiment was preformed in A549 cells. A549 cells were treated with 18.75, 37.5, 75, or 150 nM of oligonucleotide mixed with 3 ug/mL LIPOFECTIN per 100 nM oligonucleotide as described by other examples herein. Control oligonucleotides used were ISIS 129686 (SEQ ID NO: 394) and ISIS 129690 (SEQ ID NO: 393). Untreated cells served as controls. Following 16 hours of treatment, RNA was prepared from cells for subsequent real-time PCR analysis.
Human STAT3 mRNA expression levels were quantitated by real-time PCR using primer probe set PPS 199 and gene target quantities were normalized using Ribogreen as described in other examples herein. A “−” or “+” designation in the dose response results indicates a decrease or increase of STAT 3 mRNA expression, respectively, relative to untreated control cells.

[3] = tested on: Human STAT3 mRNA; experiment: Human STAT3 mRNA dose response in T-24 cells, real-time PCR with PPS 2033 (Table 19); conditions: 16 hours, − decrease, + increase relative to untreated control
Method: The dose-response was repeated in T-24 cells and gene target quantities were measured using a different primer-probe set, called PPS 2033 herein. PPS 2033 comprises probes and primers to human STAT3 were designed to hybridize to a human STAT3 sequence, using published sequence information (incorporated herein as SEQ ID NO: XXX). For PPS 2033 the PCR primers were: forward primer: GAGGCCCGCCCAACA (SEQ ID NO: 397) reverse primer: […] (SEQ ID NO: 398) and the PCR probe was: FAM-CTGCCTAGATCGGC-TAMRA (SEQ ID NO: 399) where FAM is the fluorescent reporter dye and TAMRA is the quencher dye. Gene target quantities obtained by real time RT-PCR are normalized by quantifying total RNA using RiboGreen™ (Molecular Probes, Inc. Eugene, Oreg.). Control oligonucleotides used were ISIS 129695 (SEQ ID NO: 391), ISIS 129694 (SEQ ID NO: 392), ISIS 129690 (SEQ ID NO: 393), ISIS 129686 (SEQ ID NO: 394), ISIS 116847 (SEQ ID NO: 395) and ISIS 113529 (SEQ ID NO: 396).
(§1) T-24 cells were treated with 18.75, 37.5, 75, or 150 nM of oligonucleotide mixed with 3 ug/mL LIPOFECTIN per 100 nM oligonucleotide as described by other examples herein. Untreated cells served as controls. Following 16 hours of treatment, RNA was prepared from cells for subsequent real-time PCR analysis.
Human STAT3 mRNA expression levels were quantitated by real-time PCR using primer probe set PPS 2033 and gene target quantities were normalized using Ribogreen as described in other examples herein. A “−” or “+” designation indicates a decrease or increase of STAT 3 mRNA expression, respectively, relative to untreated control cells.

[4] = tested on: Human STAT3 mRNA; experiment: Human STAT3 mRNA dose response in T-24 cells, real-time PCR with PPS 199 (Table 18); conditions: 16 hours, − decrease, + increase relative to untreated control
Source text: The transitional cell bladder carcinoma cell line T-24 was obtained from the American Type Culture Collection (ATCC) (Manassas, Va.). T-24 cells were routinely cultured in complete McCoy's 5A basal media (Gibco/Life Technologies, Gaithersburg, Md.) supplemented with 10% fetal calf serum (Gibco/Life Technologies, Gaithersburg, Md.), penicillin 100 units per mL, and streptomycin 100 micrograms per mL (Gibco/Life Technologies, Gaithersburg, Md.). Cells were routinely passaged by trypsinization and dilution when they reached 90% confluence. Cells were seeded into 96-well plates (Falcon-Primaria #3872) at a density of 7000 cells/well for use in RT-PCR analysis.
Control oligonucleotides used were ISIS 129695 ([…], SEQ ID NO: 391), ISIS 129694 ([…] SEQ ID NO: 392), ISIS 129690 ([…] SEQ ID NO: 393), ISIS 129686 ([…] SEQ ID NO: 394), ISIS 116847 ([…], SEQ ID NO: 395) and ISIS 113529 ([…] SEQ ID NO: 396). These are universal scrambled control oligonucleotides.
as §1
Human STAT3 mRNA expression levels were quantitated by real-time PCR using primer probe set PPS 199 and gene target quantities were normalized using Ribogreen as described in other examples herein. A “−” or “+” designation indicates a decrease or increase of STAT 3 mRNA expression, respectively, relative to untreated control cells.

[5] = tested on: Mouse B16 melanoma cells; experiment: Cell number of B16 melanoma cells after antisense treatment; conditions: 24 hours after transfection
Method: Mouse B16 melanoma cells were grown in RPMI 1640 (Life Technologies, Inc., Grand Island, N.Y.) medium supplemented with 10% fetal bovine serum, 2 mM L-glutamine, 1 mM sodium pyruvate, 1% MEM nonessential amino acids and 100 IU/ml penicillin/streptomycin.
Cells were treated with ISIS 17152, targeted to mouse STAT3, or the 3-base mismatch control, ISIS 28084 ([…]; SEQ ID NO: 151). Cells were transfected with oligonucleotide using LipofectAMINE PLUSJ reagent (GibcoBRL). Oligonucleotide was pre-complexed with LipofectAMINE PLUSJ by adding the oligonucleotide to 100 μl serum-free RPMI 1640 medium, then 6 μl LipofectAMINE PLUSJ reagent was added, the sample was mixed well and incubated for 15 minutes at room temperature. An additional 4 μl of LipofectAMINE PLUSJ reagent was diluted to 100 μl in serum-free RPMI. This diluted LipofectAMINE PLUSJ was mixed with the pre-complexed oligonucleotide/LipofectAMINE PLUSJ mixture and incubated for 15 minutes at room temperature. 800 μl of serum-free RPMI 1640 was added, and the resulting oligonucleotide-LipofectAMINE PLUSJ-medium mixture (approximately 1 ml) was added to cells in a 6-well plate. After 3 hours incubation, 1 ml of RPMI 1640 supplemened with 20% fetal bovine serum was added. Oligonucleotide concentrations were 200 nM or 300 nM.
24 hours after transfection, cells were counted to determine the effect of antisense treatment on cell death. Cells were harvested at 24 hours post transfection for western blot analysis and at 48 hours post-transfection for Annexin-V staining for apoptosis.

Substance: 106734 (CATTCTTGGGATTGTTGGTC; all C 5-methyl, all phosphorothioate, sugars by position not given here; further chemistry not fully specified) [compound 106734]
- Percent change in STAT3 mRNA expression in A549 cells by duplex antisense compounds ([1]; 12.5 nM oligonucleotide): −5%
- Percent change in STAT3 mRNA expression in A549 cells by duplex antisense compounds ([1]; 25 nM oligonucleotide): −5%
- Percent change in STAT3 mRNA expression in A549 cells by duplex antisense compounds ([1]; 50 nM oligonucleotide): −40%
- Percent change in STAT3 mRNA expression in A549 cells by duplex antisense compounds ([1]; 100 nM oligonucleotide): −56%
- Percent change in STAT3 mRNA expression in A549 cells by duplex antisense compounds ([1]; 200 nM oligonucleotide): −67%
- Percent change in STAT3 mRNA expression in A549 cells by duplex antisense compounds ([1]; 400 nM oligonucleotide): −77%
- Percent change of STAT3 expression in A549 cells using PPS 199 ([2]; 18.75 nM oligonucleotide): −2%
- Percent change of STAT3 expression in A549 cells using PPS 199 ([2]; 37.5 nM oligonucleotide): −16%
- Percent change of STAT3 expression in A549 cells using PPS 199 ([2]; 75 nM oligonucleotide): −56%
- Percent change of STAT3 expression in A549 cells using PPS 199 ([2]; 150 nM oligonucleotide): −73%

Substance: 129686 (antisense CGTTATTAACCTCCGTTGAA; all phosphorothioate, sugars by position and methylation of C not given here; 2'-MOE wings and deoxy gap) [compound 129686]
- Percent change of STAT3 expression using PPS 2033 ([3]; 18.75 nM oligonucleotide): +20%
- Percent change of STAT3 expression using PPS 2033 ([3]; 37.5 nM oligonucleotide): +16%
- Percent change of STAT3 expression using PPS 2033 ([3]; 75 nM oligonucleotide): +25%
- Percent change of STAT3 expression using PPS 2033 ([3]; 150 nM oligonucleotide): +9%
- Percent change of STAT3 expression using PPS 199 ([4]; 18.75 nM oligonucleotide): +2%
- Percent change of STAT3 expression using PPS 199 ([4]; 37.5 nM oligonucleotide): +1%
- Percent change of STAT3 expression using PPS 199 ([4]; 75 nM oligonucleotide): −5%
- Percent change of STAT3 expression using PPS 199 ([4]; 150 nM oligonucleotide): +1%
- Percent change of STAT3 expression in A549 cells using PPS 199 ([2]; 18.75 nM oligonucleotide): +27%
- Percent change of STAT3 expression in A549 cells using PPS 199 ([2]; 37.5 nM oligonucleotide): +23%
- Percent change of STAT3 expression in A549 cells using PPS 199 ([2]; 75 nM oligonucleotide): +22%
- Percent change of STAT3 expression in A549 cells using PPS 199 ([2]; 150 nM oligonucleotide): +19%

Substance: 129690 (antisense TTAGAATACGTCGCGTTATG; all phosphorothioate, sugars by position and methylation of C not given here; 2'-MOE wings and deoxy gap) [compound 129690]
- Percent change of STAT3 expression using PPS 2033 ([3]; 18.75 nM oligonucleotide): +4%
- Percent change of STAT3 expression using PPS 2033 ([3]; 37.5 nM oligonucleotide): +10%
- Percent change of STAT3 expression using PPS 2033 ([3]; 75 nM oligonucleotide): +8%
- Percent change of STAT3 expression using PPS 2033 ([3]; 150 nM oligonucleotide): +11%
- Percent change of STAT3 expression using PPS 199 ([4]; 18.75 nM oligonucleotide): +2%
- Percent change of STAT3 expression using PPS 199 ([4]; 37.5 nM oligonucleotide): +7%
- Percent change of STAT3 expression using PPS 199 ([4]; 75 nM oligonucleotide): +6%
- Percent change of STAT3 expression using PPS 199 ([4]; 150 nM oligonucleotide): +8%
- Percent change of STAT3 expression in A549 cells using PPS 199 ([2]; 18.75 nM oligonucleotide): +30%
- Percent change of STAT3 expression in A549 cells using PPS 199 ([2]; 37.5 nM oligonucleotide): +27%
- Percent change of STAT3 expression in A549 cells using PPS 199 ([2]; 75 nM oligonucleotide): +16%
- Percent change of STAT3 expression in A549 cells using PPS 199 ([2]; 150 nM oligonucleotide): +27%

Substance: 129698 (antisense TTTGATCGAGGTTAGCCGTG; listed as DNA, chemistry not given here) [compound 129698]
- Percent change in STAT3 mRNA expression in A549 cells by duplex antisense compounds ([1]; 50 nM oligonucleotide): +41%
- Percent change in STAT3 mRNA expression in A549 cells by duplex antisense compounds ([1]; 100 nM oligonucleotide): +42%
- Percent change in STAT3 mRNA expression in A549 cells by duplex antisense compounds ([1]; 200 nM oligonucleotide): +1%
- Percent change in STAT3 mRNA expression in A549 cells by duplex antisense compounds ([1]; 400 nM oligonucleotide): +22%

Substance: AAAAAGAGGCCTGATTGCCC (listed as DNA, chemistry not given here) [ISIS 28084, reference compound]
- cell number ([5]; 200 nM, Expt 1): 10.2 × 10^5
- cell number ([5]; 200 nM, Expt 2): 5.0 × 10^5
- cell number ([5]; 200 nM, Expt 3): 3.5 × 10^5
- cell number ([5]; 300 nM, Expt 2): 9.1 × 10^5
- cell number ([5]; 300 nM, Expt 3): 3.3 × 10^5
